What was measured:
EBV = experiment: Inhibitory effect on EBV in H1 cells, bioassay by EBV DP activity in superinfected Raji cells; type: cell-based, Epstein-Barr virus; details: EBV ID90 vs H1 cell CD50
Description: (§1) H1 cells were maintained in […] growth for two days prior to the initiation of treatment. The cells were centrifuged at 600 g for 10 min. at room temperature to separate them from the medium containing pre-existing virus particles. The H1 cells were seeded in 24 well plates at a density of 1×10^5 cells per well in 2 ml of fresh medium with or without drug and incubated at 37° C. for 5 days. The medium containing virion was saved and used for evaluating the inhibitory effect of drugs on virus production and infectivity by use of a bioassay. The virion were pelleted from the cell free medium by centrifugation at 45,000 rpm for 90 min. in a SW-50 Ti rotor (Beckman). The virion were resuspended in 1 ml growth medium and then used to infect 1×10^6 Raji cells for 48 hours. Since the level of EBV DP activity in Raji cells post superinfection is proportional to the number of virions added, the EBV specific DP activity induced was able to be measured. The inhibitory drug effect was calculated by comparing the EBV DP activity to multiple dilution controls.
and compared with controls. Hl cells were treated for 5 days and the
ID90 was determined by bioassay.

H1 cells = experiment: Cytotoxicity in H1 cells (72 hours, cell count); type: cell-based; details: summary statement, cells not specified
Description: Inhibitory effect of compounds on EBV: The CD50 was performed by
exposing Hl cells to different concentrations of the compounds in normal
growth medium at 37° C. for 72 hours; the cells were then counted
and compared with controls. Hl cells were treated for 5 days and the […]

mitochondrial DNA = experiment: Mitochondrial DNA content in H1 cells (slot blot assay); type: cell-based, human; details: 1 mM, 6 days
Description: as §1
Slot Blot Assay--The amount of mitochondrial DNA was measured by the slot blot method (2). […] The amount of mitochondrial DNA in the treated and non-treated H1 cells was quantified by densitometer (LKB Ultroscan XL).

[1] = Clearance of L-(-)-FMAU from plasma and liver of mice after oral administration; type: in vivo, mouse
Description: The clearance of L-(-)-FMAU from the plasma and liver of mice after oral administration was evaluated. Mice were […] with L-(-)-FMAU which was tritium labeled (radiospecificity of […]).
FIG. 11 is a graph of the plasma concentration of L-(-)-FMAU in mice after oral administration 10 over time, and FIG. 12 is a graph of the concentration of L-(-)-FMAU in mouse liver after oral administration over time (cross, 10 mg/kg administered bid (bi-daily) for 30 days prior to pharmacokinetic study and then study carried out on day thirty one on administration of same concentration; dark circle, 50 mg/kg administered bid for 30 days prior to study and then study carried out on day thirty one on administration of same concentration; open circle, 50 mg/kg administered for the first time on the first day of the study).
At the times indicated (see FIGS. 10 and 11) the mice were bled from their retro-orbital sinus using heparinized capillaries. The plasma was extracted with trichloroacetic acid and neutralized with freon/trioctylamine. Supernatants were directly counted and the concentration calculated.

[2] = Toxicity in BDF1 female mice, change in body weight over thirty days; type: in vivo, mouse
Description: FIG. 13a illustrates the change in body weight over thirty days of control BDF1 female mice. FIGS. 13b and 13c illustrate the change in body weight over thirty days of BDF1 female mice dosed with 10 mg/kg (13b) and 50 mg/kg (13c) bid of L-(-)-FMAU. The body weight presented represents the mean and standard deviation of that of five to seven mice.

[3] = Clinical chemistry of mouse plasma after L-(-)-FMAU treatment; type: in vivo; details: 10 or 50 mg/kg bid for thirty days
Description: FIGS. 14-20 provide the clinical chemistry of mouse plasma after administration of L-(-)-FMAU at 10 mg/kg (three mice) or 50 mg/kg (three mice) bid for thirty days.

[4] = with the exception of mouse 50-2

In the case of `Nc1nc2c(ncn2COCCO)c(=O)[nH]1` [ACV], the “Therapeutic Index (CD50 /ID90)” value (EBV) is reported as 20.
With `CCc1cn([C@@H]2O[C@H](CO)[C@@H](O)[C@@H]2F)c(=O)[nH]c1=O` [D-FEAU] the “Therapeutic Index (CD50 /ID90)” value (EBV) was 2000.
In the case of `Nc1nc(=O)n([C@@H]2O[C@H](CO)[C@@H](O)[C@@H]2F)cc1I` [D-FIAC], the “Therapeutic Index (CD50 /ID90)” value (EBV) is reported as 25.
With `O=c1[nH]c(=O)n([C@@H]2O[C@H](CO)[C@@H](O)[C@@H]2F)cc1I` [D-FIAU] the “Therapeutic Index (CD50 /ID90)” value (EBV) was 40.
For `Cc1cn([C@@H]2O[C@H](CO)[C@@H](O)[C@@H]2F)c(=O)[nH]c1=O` [D-FMAU], the “Therapeutic Index (CD50 /ID90)” value (EBV) was 50.
In the case of `Nc1nc2c(ncn2COC(CO)CO)c(=O)[nH]1` [DHPG], the “Therapeutic Index (CD50 /ID90)” value (EBV) is reported as 15.
With `CCc1cn([C@H]2O[C@@H](CO)[C@H](O)[C@H]2F)c(=O)[nH]c1=O` [L-FEAU, 2'-fluoro-5-ethyl-β-L-arabinofuranosyluridine] the “Therapeutic Index (CD50 /ID90)” value (EBV) was 15.
In the case of `Nc1nc(=O)n([C@H]2O[C@@H](CO)[C@H](O)[C@H]2F)cc1I` [L-FIAC, 2'-fluoro-5-iodo-β-L-arabinofuranosylcytosine], the “Therapeutic Index (CD50 /ID90)” value (EBV) is reported as > 40.
In the case of `O=c1[nH]c(=O)n([C@H]2O[C@@H](CO)[C@H](O)[C@H]2F)cc1I` [L-FIAU, 2'-fluoro-5-iodo-β-L-arabinofuranosyluridine], the “Therapeutic Index (CD50 /ID90)” value (EBV) is reported as 12.
In the case of `Cc1cn([C@H]2O[C@@H](CO)[C@H](O)[C@H]2F)c(=O)[nH]c1=O` [L-FMAU, 2'-fluoro-5-methyl-β-L-arabinofuranosyluridine], the “cytotoxicity (in words)” value (H1 cells) is reported as “low cytotoxicity”, the “Therapeutic Index (CD50 /ID90)” value (EBV) is reported as 200 and the “inhibition of mitochondrial DNA content in H1 cells” value (mitochondrial DNA) is reported as “No inhibition”. For the same molecule, the “time of peak concentration in liver” value ([1]; 10 or 50 mg/kg, liver) was “approximately one”, the clearance from liver ([1]; liver) was “substantially cleared from both plasma and liver after four hours” and the clearance from plasma ([1]; plasma) was “substantially cleared from both plasma and liver after four hours”. The tolerability ([2]; BDF1 female mice, 10 and 50 mg/kg bid, thirty days) was “well tolerated”, the “change in body weight” value ([2]; mouse, in vivo) was “did not appear to significantly affect the weight of the mice over thirty days” and the “lactic acid in mouse plasma” value [3] was “not significantly different from those of the control mice”. The “lactic dehydrogenase in mouse plasma” value [3] was “not significantly different from those of the control mice”, the “total bilirubin in mouse plasma” value [3] was “fall within the normal human range (less than 1.2 mg/dL)” and the “alkaline phosphatase in mouse plasma” value ([3]; normal human level 30-114 U/L) was “somewhat higher than the normal human level”. For the same molecule, the “ALT (SGPT) in mouse plasma” value [3, 4] was “not different from those of the control mice”, the “creatinine in mouse plasma” value [3, 4] was “not different from those of the control mice” and the “AST (SGOT) in mouse plasma” value ([3]; with the exception of mouse 50-2 and mouse 10-2) was “not different from those of the control mice”.
With `Nc1nc2c(ncn2CCC(CO)CO)c(=O)[nH]1` [PCV] the “Therapeutic Index (CD50 /ID90)” value (EBV) was 25.
In the case of `O=C(O)P(=O)(O)O` [PFA], the “Therapeutic Index (CD50 /ID90)” value (EBV) is reported as 16.

Source: patent US5808040A, “L-nucleosides incorporated into polymeric structure for stabilization of oligonucleotides” (priority 1997, dated 1998)
